Source: US20030232765A1, “Aryl urea compounds in combination with other cytostatic or cytotoxic agents for treating human cancers” (BAYER CORPORATION, priority 2001, published 2003)
Where a name gives a salt, the structure may show the parent alone. Read-outs that look alike come from different tables or passages of the source.

Experiments:
[1] = system: DLD-1 human colon tumor xenografts; experiment: Tumor xenograft experiment, established s.c. DLD-1 tumors, anti-tumor efficacy (Example 1); type: in vivo; details: Camptosar 40 mg/kg/dose i.p. q4d×3, Compound A 80 mg/kg/dose p.o. qd×9
Source text: (§1) Mice received food and water ad libitum.
(§2) These schedules are termed ‘Concurrent Therapy’.

[2] = Camptosar 40 mg/kg/dose i.p. q4d×3, Compound A 80 mg/kg/dose p.o. qd×9
Source text: (§3) Ncr nu/nu female mice (Taconic Farms, Germantown, N.Y.) were used for all in vivo studies invovling the DLD-1 and NCI-H460 tumor models. Female CB-17 SCID nice (Taconic Farms, Germantown, N.Y.) were used for studies involving the Mia-PaCa-2 tumor model. The mice were housed and maintained within the Comparative Medicine Department at Bayer Corporation, West Haven, Conn. in accordance with Bayer IACUC, State, and Federal guidelines for the humane treatment and care of laboratory animals. Mice received food and water ad libitum.
as §2
In the first study, Camptosar® was administered i.p at 40 mg/kg/dose.

[3] = Iressa 150 mg/kg/dose p.o. qd×9; Compound A 80 mg/kg/dose p.o. qd×9; alone or combined; 10 mice per group
Source text: as §2

[4] = system: MX-1 mammary tumor xenografts; experiment: Tumor xenograft experiment, established MX-1 tumors, anti-tumor efficacy (Example 4); details: DOX 4 mg/kg/dose i.v. q4d×3; Compound A 40 mg/kg/dose p.o. qd×9; alone or combined; endpoint time to four mass doublings
Source text: The DLD-1 human colon carcinoma and the MiaPaCa-2 human pancreatic carcinoma were obtained from the American Type Tissue Culture Collection Repository. The MX-1 human mammary tumor was obtained from the NCI tumor repository. Tumors were maintained as a serial in vivo passage of s.c. fragments (3×3 mm) implanted in the flank using a 12 gauge trocar. A new generation of the passage was initiated every three or four weeks.
Female mice were implanted s.c. with DLD-1, MX-1 or Mia-PaCa-2 tumor fragments from an in vivo passage. […] The general health of mice was monitored and mortality was recorded daily. Tumor dimensions and body weights were recorded twice a week starting with the first day of treatment. […]
Tumor weights were calculated using the equation (l×w^2)/2, where l and w refer to the larger and smaller dimensions collected at each measurement. […] Anti-tumor efficacy was measured as the incidence of complete regressions (CR) defined as tumors that are reduced to below the limit of measurement (3 mm) in both length and width, partial regressions (PR) defined as tumors that are reduced by more than 50% but less than 100% of their initial size, and percent tumor growth suppression (% TGS). […]

[5] = system: A549 human non-small cell lung tumor xenografts; experiment: Tumor xenograft experiment, established A549 tumors, anti-tumor efficacy (Example 5); type: in vivo; details: Iressa 150 mg/kg/dose p.o. qd×9, Compound A 80 mg/kg/dose p.o. qd×9; for percent tumor growth suppression (% TGS): alone or combined, endpoint time to one mass doubling
Experimental: (§4) The NCI-H460 cells were maintained and passaged in vitro using DMEM (GIBCO cat. # 11995-065: 500 mls) supplemented with 10% heat inactivated fetal bovine serum (JRH Biosciences cat.# 12106-500M), 2 mM L-glutamine (GIBCO cat. # 25030-81), 10 mM HEPES buffer (GIBCO cat # 15630-080) and penicillin-streptomycin (GIBCO cat. # 15140-122: 5 mls/[…]). The A549 cells were maintained and passaged using RPMI 1640 media (GIBCO cat.# 11875-085: 1000 ml) supplemented with 10% heat-inactivated fetal bovine serum (JRH Biosciences cat.# 12106-500M). All cells were maintained at 37° C. and 5% CO2 in a Fisher Scientific 610 CO2 incubator.
as §2

[6] = Tolerability (body weight, mortality) in MiaPaCa-2 tumor-bearing mice (Example 2); type: in vivo; details: Gemzar 120 mg/kg/dose i.p. q4d×3; Compound A p.o. qd×9 (40 mg/kg/dose, 80 mg/kg dose level); alone or concurrent
Source text: as §1, §2

[7] = system: MiaPaCa-2 human pancreatic tumor xenografts; experiment: Tumor xenograft experiment, established s.c. MiaPaCa-2 tumors, anti-tumor efficacy (Example 2); type: in vivo; details: Gemzar 120 mg/kg/dose i.p. q4d×3
Source text: as §1, §2

in vivo = details: female, Ncr nu/nu, mouse, iv, 6.7 mg/kg/dose
Source text: as §3, §2

[8] = system: NCI-H460 human non-small cell lung tumor xenografts; experiment: Tumor xenograft experiment, established s.c. NCI-H460 tumors, anti-tumor efficacy (Example 3); type: in vivo; details: Ncr nu/nu mice; Navelbine 6.7 mg/kg/dose i.v. q4d×3; Compound A 40 mg/kg/dose p.o. qd×9; alone or combined; endpoint time to three mass doublings
Source text: as §3, §4, §2

CCc1c2c(nc3ccc(OC(=O)N4CCC(N5CCCCC5)CC4)cc13)-c1cc3c(c(=O)n1C2)COC(=O)[C@]3(O)CC [Camptosar, Irinotecan]
incidence of complete regressions (CR) ([1]; 10 mice per group): no complete or partial tumor regressions | incidence of partial regressions (PR) ([1]; 10 mice per group): no complete or partial tumor regressions | percent tumor growth suppression (% TGS) ([1]; Ncr nu/nu mice, alone or concurrent, endpoint time to three mass doublings): 71% | lethality ([2]; alone or concurrent): no lethality | weight loss ([2]; alone or concurrent): minimal weight loss | tolerability ([2]; single agents): well tolerated

CNC(=O)c1cc(Oc2ccc(NC(=O)Nc3ccc(Cl)c(C(F)(F)F)c3)cc2)ccn1 [Compound A, N-(4-chloro-3-(trifluoromethyl)phenyl)-N′-(4-(2-(N-methylcarbamoyl)-4-pyridyloxy)phenyl)urea]
lethality [3]: no weight loss or lethality | percent tumor growth suppression (% TGS) [4]: 46% | incidence of complete regressions (CR) ([5]; 10 mice per group): 1 | incidence of partial regressions (PR) ([5]; 10 mice per group): 2 | percent tumor growth suppression (% TGS) [5]: 218% | lethality [6]: no lethality | lethality ([2]; alone or concurrent): no lethality

COc1cccc2c1C(=O)c1c(O)c3c(c(O)c1C2=O)C[C@@](O)(C(=O)CO)C[C@@H]3O[C@H]1C[C@H](N)[C@H](O)[C@H](C)O1 [DOX, Doxorubicin HCl]
percent tumor growth suppression (% TGS) [4]: 43%

Nc1ccn([C@@H]2O[C@H](CO)[C@@H](O)C2(F)F)c(=O)n1 [Gemzar, Gemcitabine HCI]
percent tumor growth suppression (% TGS) ([7]; CB-17 SCID mice, Compound A 40 mg/kg/dose p.o. qd×9, alone or concurrent, endpoint time to two mass doublings): 154% | incidence of complete regressions (CR) ([7]; 10 mice per group): no complete or partial tumor regressions | incidence of partial regressions (PR) ([7]; Compound A 40 mg/kg/dose p.o. qd×9, 10 mice per group): no complete or partial tumor regressions | lethality [6]: no lethality

COc1cc2ncnc(Nc3ccc(F)c(Cl)c3)c2cc1OCCCN1CCOCC1 [Iressa, 4-(3-chloro-4-fluoroanilino)7-methoxy-6-(3-morpholinopropoxy)quinazoline]
lethality [3]: no lethality | incidence of partial regressions (PR) ([5]; 10 mice per group): 1 | percent tumor growth suppression (% TGS) [5]: 101%

CCC1=C[C@@H]2CN(C1)Cc1c([nH]c3ccccc13)[C@@](C(=O)OC)(c1cc3c(cc1OC)N(C)[C@H]1[C@@](O)(C(=O)OC)[C@H](OC(C)=O)[C@]4(CC)C=CCN5CC[C@]31[C@@H]54)C2 [Navelbine, 3′,4′-didehydro-4′deoxy-C-norvincaleukoblastine [R—(R,R)-2,3-dihydroxybutanedioate (1:2)(salt)]]
MTD at 9 days (in vivo): ~6.7 mg/kg | percent tumor growth suppression (% TGS) [8]: 32%
